# Values quoted from earlier work in patent US20190091190A1, “COMBINATION THERAPY FOR TREATMENT OF MULTIPLE SCLEROSIS” (FWP IP ApS, priority 2012, published 2019).
# Like-named read-outs stand apart in the source and are kept apart here.
# Assays:
# patients with RRMS [1] = details: for reduction of 12-week confirmed disability progression as measured by EDSS: at 2 years
# RRMS patients [2] = details: for time to first relapse during the two years of the study: 45.6% on placebo
# [3] = 7 mg and 14 mg, add-on to IFN
# [4] = 7 mg or 14 mg added to glatiramer acetate, vs placebo added
# RRMS patients [5] = system: RRMS patients
# patients with RRMS [6] = details: 7 mg po once-daily
# RRMS patients [7] = details: 0.6 mg once-daily oral
# RRMS patients [8] = system: RRMS patients; remark: listed apart in the source
# patients with RRMS [9] = details: for reduction of lymphocyte counts: after 1 month; for patients remaining relapse-free: 12 months
# [10] = system: patients with EDSS scores of 0-5.5 and relapses; details: for reduction of frequency of MS relapses vs. placebo: 24 months
compound,measurement,setting,value
"COC(=O)/C=C/C(=O)OC [dimethylfumarate, trans-1,2-Ethylenedicarboxylic acid dimethyl ester]",reduction of annualized relapse rate versus placebo,patients with RRMS [1]; 240 mg po BID,44%
same,reduction of new T1-hypointense lesions,patients with RRMS [1]; 240 mg po BID,57%
same,reduction of number of new or newly enlarging T2-hyperintense lesions,patients with RRMS [1]; 240 mg po BID,71%
same,reduction of proportion of patients who relapsed,patients with RRMS [1]; 240 mg po BID,34%
same,reduction of 12-week confirmed disability progression as measured by EDSS,patients with RRMS [1]; 240 mg po BID,21%
same,reduction of annualized relapse rate versus placebo,patients with RRMS [1]; 240 mg po TID,51%
same,reduction of new T1-hypointense lesions,patients with RRMS [1]; 240 mg po TID,65%
same,reduction of number of new or newly enlarging T2-hyperintense lesions,patients with RRMS [1]; 240 mg po TID,73%
same,reduction of proportion of patients who relapsed,patients with RRMS [1]; 240 mg po TID,45%
same,reduction of 12-week confirmed disability progression as measured by EDSS,patients with RRMS [1]; 240 mg po TID,24%
same,most common adverse effects,patients with RRMS [1]; dimethylfumarate groups (BID and TID),flushing and gastrointestinal (GI) events
same,reduction in annualized relapse rate versus placebo,patients with RRM; 240 po BID,53%
same,reduction in proportion of patients who relapsed at 2 years versus placebo (primary endpoint),patients with RRM; 240 po BID,49%
same,reduction in annualized relapse rate versus placebo,patients with RRM; 240 po TID,48%
same,reduction in proportion of patients who relapsed at 2 years versus placebo (primary endpoint),patients with RRM; 240 po TID,50%
"C/C(O)=C(\C#N)C(=O)Nc1ccc(C(F)(F)F)cc1 [teriflunomide, (Z)-2-cyano-3-hydroxy-but-2-enoic acid-(4′-trifluoro-methylphenyl)-amide]",reduction of annualized relapse rate (ARR) at 2 years compared to placebo,RRMS patients [2]; 7 mg p.o. once-daily,31.2%
same,reduction of risk of disability progression,RRMS patients [2]; 7 mg p.o. once-daily,24%
same,reduction of the burden of disease (MRI) compared to placebo,RRMS patients [2]; 7 mg p.o. once-daily,39%
same,time to first relapse during the two years of the study,RRMS patients [2]; 7 mg,53.7%
same,reduction of annualized relapse rate (ARR) at 2 years compared to placebo,RRMS patients [2]; 14 mg p.o. once-daily,31.5%
same,reduction of risk of disability progression,RRMS patients [2]; 14 mg p.o. once-daily,30%
same,reduction of the burden of disease (MRI) compared to placebo,RRMS patients [2]; 14 mg p.o. once-daily,67%
same,time to first relapse during the two years of the study,RRMS patients [2]; 14 mg,56.5%
same,reduction in annualized relapse rate,[3],no significant effect
same,reducing T1-Gd lesions,[4],more effective than placebo
same,annualized relapse rate compared to placebo,RRMS patients [5]; 7 mg p.o. once-daily,significant reduction
same,risk of 12 wk sustained accumulation of disability compared to placebo,RRMS patients [5]; 7 mg p.o. once-daily,no significant difference
same,reduction in annualized relapse rate compared to placebo,RRMS patients [5]; 14 mg p.o. once-daily,36.3%
same,reduction in the risk of 12wk sustained accumulation of disability compared to placebo,RRMS patients [5]; 14 mg p.o. once-daily,31.5%
same,relapse rate,patients with RRMS [6],0.410
Glatiramer acetate,reduction of new T1-hypointense lesions,patients with RRMS [1]; 20 mg sc once-daily,41%
same,reduction of number of new or newly enlarging T2-hyperintense lesions,patients with RRMS [1]; 20 mg sc once-daily,54%
same,reduction of proportion of patients who relapsed,patients with RRMS [1]; 20 mg sc once-daily,29%
same,reduction of 12-week confirmed disability progression as measured by EDSS,patients with RRMS [1]; 20 mg sc once-daily,7%
CCN(C(=O)c1c(O)c2c(Cl)cccc2n(C)c1=O)c1ccccc1 [laquinimod],reduction in ARR,"RRMS patients [7]; 24 months, p=0.0024",23%
same,reduction in progression of brain atrophy,RRMS patients [7]; p<0.0001,33%
same,reduction in the risk of EDDS progression,RRMS patients [7]; p=0.0122,36%
same,reduced ARR,"RRMS patients [8]; 0.6 mg once-daily oral, pre-specified sensitivity analysis corrected for baseline imbalances",21%
same,reduction in the risk of EDSS progression,"RRMS patients [8]; 0.6 mg, corrected analysis, p=0.044",34%
same,reduction in brain volume loss,"RRMS patients [8]; 0.6 mg, corrected analysis, p=<0.0001",28%
same,primary endpoint of reduction in ARR versus placebo,"RRMS patients [8]; 0.6 mg, uncorrected, p=0.075",did not reach statistical significance
CCCCCCCCc1ccc(CCC(N)(CO)CO)cc1 [fingolimod],AE leading to the discontinuation of study medication,patients with RRMS [9]; 0.5 mg,5.6%
same,overall number of SAE,patients with RRMS [9]; 0.5 mg,7.0%
same,patients who developed macular edema,patients with RRMS [9]; 0.5 mg,0.5%
same,reduction of lymphocyte counts,patients with RRMS [9]; 0.5 mg,73%
same,1-year relapse rate lower than with Avonex,patients with RRMS [9]; 0.5 mg/day oral,52%
same,patients remaining relapse-free,patients with RRMS [9]; 0.5 mg/day oral,83%
same,AE leading to the discontinuation of study medication,patients with RRMS [9]; 1.25 mg,10.0%
same,overall number of SAE,patients with RRMS [9]; 1.25 mg,10.7%
same,patients who developed macular edema,patients with RRMS [9]; 1.25 mg,1%
same,reduction of lymphocyte counts,patients with RRMS [9]; 1.25 mg,77%
same,1-year relapse rate lower than with Avonex,patients with RRMS [9]; 1.25 mg/day oral,38%
same,patients remaining relapse-free,patients with RRMS [9]; 1.25 mg/day oral,80%
same,"time to development of transient, dose-dependent reduction in heart rate",patients with RRMS [9]; after the initial administration,≤ 1 h
same,AEs that led to discontinuation of the study drug,[10]; 0.5 mg,7.5 % of patients
same,lymphopenia of less than 0.2×10^9 per liter,[10]; 0.5 mg,3.5%
same,reduction of frequency of MS relapses vs. placebo,[10]; 0.5 mg/day,54%
same,reduction of risk of disability progression vs. placebo,"[10]; 0.5 mg/day, confirmed after 3 months",30%
same,reduction of risk of disability progression vs. placebo,"[10]; 0.5 mg/day, confirmed after 6 months",37%
same,AEs that led to discontinuation of the study drug,[10]; 1.25 mg,14.2 % of patients
same,lymphopenia of less than 0.2×10^9 per liter,[10]; 1.25 mg,5.4%
same,macular edema diagnosed,[10]; 1.25 mg,seven
same,reduction of frequency of MS relapses vs. placebo,[10]; 1.25 mg/day,60%
same,reduction of risk of disability progression vs. placebo,"[10]; 1.25 mg/day, confirmed after 3 months",32%
same,reduction of risk of disability progression vs. placebo,"[10]; 1.25 mg/day, confirmed after 6 months",40%
